This note sets out measurements from ChEMBL document CHEMBL3112508, “IV. Discovery of CXCR3 antagonists substituted with heterocycles as amide surrogates: improved PK, hERG and metabolic profiles” (Bioorg Med Chem Lett, 2014).

The target of data set [1] is T1, C-X-C chemokine receptor type 3 (Homo sapiens, UniProt P49682).
T1 sequence (P49682 whole entry): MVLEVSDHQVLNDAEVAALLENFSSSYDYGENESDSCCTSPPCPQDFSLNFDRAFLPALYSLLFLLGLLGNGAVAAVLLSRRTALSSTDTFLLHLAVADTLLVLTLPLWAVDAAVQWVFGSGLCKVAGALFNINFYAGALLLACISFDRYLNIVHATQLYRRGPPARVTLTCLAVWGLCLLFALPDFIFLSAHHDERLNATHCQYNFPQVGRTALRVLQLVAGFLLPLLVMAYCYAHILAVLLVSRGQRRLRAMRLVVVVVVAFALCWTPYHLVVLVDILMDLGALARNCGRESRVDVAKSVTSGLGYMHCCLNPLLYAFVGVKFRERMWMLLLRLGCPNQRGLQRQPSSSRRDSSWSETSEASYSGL
Nature of the data set: Binding affinity to human CXCR3 receptor.

The target in data set [2] is Voltage-gated inwardly rectifying potassium channel KCNH2 (Homo sapiens, UniProt Q12809). Put plainly: Inhibition of human ERG channel by Rb efflux assay.
Chain of Voltage-gated inwardly rectifying potassium channel KCNH2 (Q12809 whole entry): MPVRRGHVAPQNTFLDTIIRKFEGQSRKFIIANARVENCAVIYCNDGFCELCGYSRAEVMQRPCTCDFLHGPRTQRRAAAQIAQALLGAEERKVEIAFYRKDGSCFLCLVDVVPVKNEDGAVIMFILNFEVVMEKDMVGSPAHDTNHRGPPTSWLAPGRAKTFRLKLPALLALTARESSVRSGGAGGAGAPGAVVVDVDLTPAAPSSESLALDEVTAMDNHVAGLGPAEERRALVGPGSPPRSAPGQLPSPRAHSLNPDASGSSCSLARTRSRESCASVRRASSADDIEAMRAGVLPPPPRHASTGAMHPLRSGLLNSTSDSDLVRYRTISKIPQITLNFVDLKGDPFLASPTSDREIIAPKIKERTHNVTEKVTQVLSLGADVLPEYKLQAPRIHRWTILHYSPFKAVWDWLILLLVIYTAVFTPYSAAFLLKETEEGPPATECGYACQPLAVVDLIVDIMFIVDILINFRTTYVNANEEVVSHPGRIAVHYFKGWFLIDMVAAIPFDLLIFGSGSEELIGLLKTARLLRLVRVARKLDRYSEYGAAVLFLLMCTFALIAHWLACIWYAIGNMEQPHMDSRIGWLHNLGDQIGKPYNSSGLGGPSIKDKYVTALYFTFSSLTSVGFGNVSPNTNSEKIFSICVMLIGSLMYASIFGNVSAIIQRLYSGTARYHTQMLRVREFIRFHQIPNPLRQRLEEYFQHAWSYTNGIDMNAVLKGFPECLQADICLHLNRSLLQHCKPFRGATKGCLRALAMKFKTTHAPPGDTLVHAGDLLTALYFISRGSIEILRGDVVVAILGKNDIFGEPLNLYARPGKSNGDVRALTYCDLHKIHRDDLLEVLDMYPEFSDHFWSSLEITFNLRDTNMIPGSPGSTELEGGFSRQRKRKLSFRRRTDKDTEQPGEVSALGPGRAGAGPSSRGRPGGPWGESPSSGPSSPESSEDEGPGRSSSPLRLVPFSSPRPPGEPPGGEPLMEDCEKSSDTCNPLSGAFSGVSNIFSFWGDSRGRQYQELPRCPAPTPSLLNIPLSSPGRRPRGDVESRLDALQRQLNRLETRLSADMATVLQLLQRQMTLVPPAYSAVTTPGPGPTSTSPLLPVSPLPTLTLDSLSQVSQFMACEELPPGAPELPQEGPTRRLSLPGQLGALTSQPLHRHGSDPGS
Data set [3] concerns Rattus norvegicus. Nature of the data set: (§1) AUC in rat at 10 mg/kg, po. The following applies: in vivo. Also on record: dose 10 mg/kg, route oral. In kind it is ADME, organism-based, Plasma.
The subject of data set [4] is Rattus norvegicus. Put plainly: AUC in rat at 10 mg/kg, po after 6 hrs. It is filed as ADME, organism-based, Plasma. Also on record: time < 6 hr, dose 10 mg/kg, route oral. Particulars: in vivo.
The nature of data set [5]: as §1. It is filed as ADME, organism-based, Plasma. Also on record: dose 10 mg/kg, route oral. Particulars: plasma.

Structures are written as SMILES. A value given as a limit tells only on which side of the number the result lay.

The compound `CC[C@H]1CN(c2nc(N)c(-c3nnc(NCCO)o3)nc2Cl)CCN1C1CCN(C(=O)c2ccc(Cl)nc2N)CC1` returned an IC50 in data set [1] of 3.9 nM. In addition, the “inhibition (INH)” value in data set [2] is reported as 0%. Further, the AUC with Rattus norvegicus [3] was 0.1 uM.hr/ml.
The compound `CCNc1nnc(-c2cnc(N3CCN(C4CCN(C(=O)c5ccc(Cl)nc5N)CC4)[C@@H](CC)C3)c(C(C)C)n2)o1` displayed an IC50 in data set [1] of 437 nM. Further, in data set [2], the “inhibition (INH)” value was 8%.
In data set [1], `CC[C@H]1CN(c2ncc(-c3noc(=O)[nH]3)cc2Cl)CCN1C1CCN(Cc2ccc(Cl)cc2F)CC1` yielded an IC50 of 760 nM.
Take `CC[C@H]1CN(c2nc(N)c(-c3nnc(C)o3)nc2Cl)CCN1C1CCN(C(=O)c2ccc(Cl)cc2)CC1`: the IC50 in data set [1] came to 4.2 nM. In data set [2], the “inhibition (INH)” value is 85%. The AUC in the data set on Rattus norvegicus [3] was 3.9 uM.hr/ml.
Compound `CCNc1nnc(-c2cnc(N3CCN(C4CCN(C(=O)c5ccc(Cl)nc5N)CC4)[C@@H](CC)C3)c(Cl)n2)o1` gave an IC50 in data set [1] of 0.8 nM. Further, the “inhibition (INH)” value in data set [2] is 14%. Moreover, the AUC in the data set with Rattus norvegicus [4] was determined as 1.4 uM.hr/ml; in the data set on Rattus norvegicus [3], 40.4 uM.hr/ml.
The matching figures for `CCNc1nnc(-c2cnc(N3C[C@H](CC)N(C4CCN(C(=O)c5ccc(Cl)cc5)CC4)C[C@H]3C)c(C)n2)o1`: 2.8 nM, 25%, 3.3 uM.hr/ml and 16.6 uM.hr/ml.
Consider `CC[C@H]1CN(c2nc(N)c(-c3nnc(C)o3)nc2Cl)CCN1C1CCN(C(=O)c2ccc(Cl)nc2N)CC1`, for which the IC50 in data set [1] was found to be 2 nM. In addition, the “inhibition (INH)” value in data set [2] is listed as 26%. This compound also displayed an AUC in the data set on Rattus norvegicus [3] of 10.2 uM.hr/ml.
With `CC[C@H]1CN(c2ncc(-c3nnc[nH]3)cc2Cl)CCN1C1CCN(Cc2ccc(Cl)cc2F)CC1`, the IC50 in data set [1] worked out at 6.8 nM.
As to `CC[C@H]1CN(c2nc(N)c(-c3nnc(C4CC4)o3)nc2Cl)CCN1C1CCN(C(=O)c2ccc(Cl)nc2N)CC1`, the IC50 in data set [1] was determined as 6 nM. Also, in data set [2], the “inhibition (INH)” value was determined as 72%.
The corresponding values for `CC[C@H]1CN(c2nc(N)c(-c3nnc(N(C)C)o3)nc2Cl)CCN1C1CCN(C(=O)c2ccc(Cl)nc2N)CC1` are 23.6 nM and 67%.
The corresponding values for `CC[C@H]1CN(c2nc(N)c(-c3nnc(NS(C)(=O)=O)o3)nc2Cl)CCN1C1CCN(C(=O)c2ccc(Cl)nc2N)CC1` are 2300 nM and 5%.
As for `CC[C@H]1CN(c2nc(N)c(-c3nnc(C)o3)nc2Cl)CCN1C1CCN(Cc2ccc(Cl)cc2)CC1`, the IC50 in data set [1] came out at 0.4 nM. This compound also displayed an AUC with Rattus norvegicus [3] of 1 uM.hr/ml.
In data set [1], `CC[C@H]1CN(c2ncc(-c3nnc[nH]3)nc2C)[C@H](C)CN1C1CCN(C(=O)c2ccc(Cl)cc2)CC1` displayed an IC50 of 33.8 nM. Further, in data set [2], the “inhibition (INH)” value is 4%. Also, the AUC came to 4.9 uM.hr/ml in the data set on Rattus norvegicus [4] and 26.5 uM.hr/ml in the data set with Rattus norvegicus [3].
Compound `CC[C@H]1CN(c2ncc(-c3ncc[nH]3)cc2Cl)CCN1C1CCN(Cc2ccc(Cl)cc2F)CC1` returned an IC50 in data set [1] of 0.3 nM.
Still for that read-out and setting: next, `CC[C@H]1CN(c2ncc(C#N)cc2Cl)CCN1C1CCN(Cc2ccc(Cl)cc2F)CC1`: 50.5 nM.
Compound `CCNc1nnc(-c2cnc(N3CCN(C4CCN(C(=O)c5ccc(Cl)cc5)CC4)[C@@H](CC)C3)c(C)n2)o1` registered an IC50 in data set [1] of 1.2 nM. The “inhibition (INH)” value in data set [2] stood at 40%. Further, the AUC with Rattus norvegicus [4] stood at 0.9 uM.hr/ml; in the data set with Rattus norvegicus [3], 16.4 uM.hr/ml.
As for `CCNc1nnc(-c2cnc(N3CCN(C4CCN(C(=O)c5ccc(Cl)nc5N)CC4)[C@@H](CC)C3)c(CC)n2)o1`, the IC50 in data set [1] was 3.8 nM. Further, the “inhibition (INH)” value in data set [2] was 4%.
In the case of `CCNc1nnc(-c2cnc(N3CCN(C4CCN(C(=O)c5ccc(Cl)nc5N)CC4)[C@@H](CC)C3)c(C(F)(F)F)n2)o1`, in data set [1], the IC50 worked out at 1.5 nM. Also, in data set [2], the “inhibition (INH)” value was determined as 43%. For the same compound, the AUC in the data set on Rattus norvegicus [4] worked out at 4.2 uM.hr/ml; in the data set on Rattus norvegicus [3] it was 25.3 uM.hr/ml.
In turn, `CC[C@H]1CN(c2nc(N)c(-c3nnco3)nc2Cl)CCN1C1CCN(Cc2ccc(Cl)cc2)CC1` yielded an IC50 in data set [1] of 5.2 nM.
Compound `CCNc1nnc(-c2cnc(N3C[C@H](CC)N(C4CCN(C(=O)c5ccc(Cl)nc5N)CC4)C[C@H]3C)c(C)n2)o1` came in with an IC50 in data set [1] of 3.4 nM. The “inhibition (INH)” value in data set [2] was 4%. Further, the AUC in the data set on Rattus norvegicus [4] was 0.8 uM.hr/ml; in the data set with Rattus norvegicus [3], 15.3 uM.hr/ml.
The compound `CC[C@H]1CN(c2nc(N)c(-c3nnc(NC)o3)nc2Cl)CCN1C1CCN(C(=O)c2ccc(Cl)nc2N)CC1` registered an IC50 in data set [1] of 1.6 nM. The “inhibition (INH)” value in data set [2] worked out at 39%. The compound also registered an AUC with Rattus norvegicus [3] of 5.5 uM.hr/ml.
In data set [1], `CCNc1nnc(-c2cnc(N3C[C@H](CC)N(C4CCN(C(=O)c5ccc(Cl)nc5N)CC4)C[C@H]3C)c(C(F)(F)F)n2)o1` yielded an IC50 of 3.6 nM. Besides, the “inhibition (INH)” value in data set [2] amounted to 22%. Moreover, the AUC with Rattus norvegicus [4] is on record as 5.1 uM.hr/ml; in the data set on Rattus norvegicus [3], 30.2 uM.hr/ml.
Compound `CC[C@H]1CN(c2ncc(-c3nnco3)cc2Cl)CCN1C1CCN(Cc2ccc(Cl)cc2F)CC1` came in with a half-inhibitory concentration (IC50) in data set [1] of 1.4 nM. Also, in data set [5], the AUC was 1.8 µM·h.
Regarding `CC[C@H]1CN(c2ncc(-c3nnc(NC)o3)nc2C)[C@H](C)CN1C1CCN(C(=O)c2ccc(Cl)cc2)CC1`, the IC50 in data set [1] is 6.2 nM. For the same compound, the “inhibition (INH)” value in data set [2] amounted to 17%. Besides, the results for the AUC in the data set with Rattus norvegicus [4] and with Rattus norvegicus [3] were 2.4 uM.hr/ml and 18 uM.hr/ml, respectively.
In the case of `CCNc1nnc(-c2cnc(N3CCN(C4CCN(C(=O)c5ccc(Cl)nc5N)CC4)[C@@H](CC)C3)c(C)n2)o1`, the IC50 in data set [1] was 1.2 nM. For the same compound, the “inhibition (INH)” value in data set [2] is listed as 12%. Further, the AUC is given as 0.1 uM.hr/ml in the data set on Rattus norvegicus [4] and 2.6 uM.hr/ml in the data set with Rattus norvegicus [3].
As for `CC[C@H]1CN(c2nc(N)c(C(N)=O)nc2Cl)CCN1C1CCN(Cc2ccc(Cl)cc2)CC1`, in data set [2], the “inhibition (INH)” value is reported as over 90%. The AUC with Rattus norvegicus [3] worked out at 5.1 uM.hr/ml.
In data set [1], `CC[C@H]1CN(c2ncc(C3=NCCN3)cc2Cl)CCN1C1CCN(Cc2ccc(Cl)cc2F)CC1` returned an IC50 of 1.3 nM.
Turning to `CCNc1nnc(-c2cnc(N3C[C@H](CC)N(C4CCN(C(=O)c5ccc(Cl)cc5)CC4)C[C@H]3C)c(C(F)(F)F)n2)o1`, the IC50 in data set [1] worked out at 1.8 nM. In addition, the “inhibition (INH)” value in data set [2] was found to be 27%. Moreover, the AUC with Rattus norvegicus [4] is 2.3 uM.hr/ml; with Rattus norvegicus [3], 9.9 uM.hr/ml.
On to `CC[C@H]1CN(c2ncc(-c3nnn[nH]3)cc2Cl)CCN1C1CCN(Cc2ccc(Cl)cc2F)CC1`, for which, in data set [1], the IC50 stood at 1380 nM.
`CC[C@H]1CN(c2nc(N)c(-c3nnc(N)o3)nc2Cl)CCN1C1CCN(C(=O)c2ccc(Cl)nc2N)CC1` displayed an IC50 in data set [1] of 1.3 nM. The “inhibition (INH)” value in data set [2] turned out to be 7%. The same compound came in with an AUC with Rattus norvegicus [3] of 0.3 uM.hr/ml.
In data set [1], `CC[C@H]1CN(c2ncc(-c3ncc[nH]3)nc2C)[C@H](C)CN1C1CCN(C(=O)c2ccc(Cl)nc2N)CC1` gave an IC50 of 1.8 nM. Further, in data set [2], the “inhibition (INH)” value came out at 22%. Moreover, the AUC is listed as 0.3 uM.hr/ml in the data set on Rattus norvegicus [4] and 6.7 uM.hr/ml in the data set with Rattus norvegicus [3].
Turning to `CC[C@H]1CN(c2ncc(-c3ncon3)cc2Cl)CCN1C1CCN(Cc2ccc(Cl)cc2F)CC1`, the IC50 in data set [1] was determined as 286 nM.
Regarding `CC[C@H]1CN(c2ncc(-c3nnc(N)o3)nc2C)[C@H](C)CN1C1CCN(C(=O)c2ccc(Cl)cc2)CC1`, the concentration for half-maximal inhibition (IC50) in data set [1] stood at 6.4 nM. Moreover, the “inhibition (INH)” value in data set [2] worked out at 0%. For the same compound, the AUC in the data set on Rattus norvegicus [4] is reported as 1 uM.hr/ml; with Rattus norvegicus [3], 12.7 uM.hr/ml.
For `CCNc1nnc(-c2nc(Cl)c(N3CCN(C4CCN(C(=O)c5ccc(Cl)nc5N)CC4)[C@@H](CC)C3)nc2N)o1`, the IC50 in data set [1] worked out at 1 nM. Moreover, the “inhibition (INH)” value in data set [2] came to 26%. In addition, in the data set on Rattus norvegicus [3], the AUC is recorded as 16.6 uM.hr/ml.
The matching figures for `CC[C@H]1CN(c2nc(N)c(-c3nnc(CO)o3)nc2Cl)CCN1C1CCN(C(=O)c2ccc(Cl)nc2N)CC1`: 2.2 nM, 16% and 2.5 uM.hr/ml.
The compound `CCNc1nnc(-c2cnc(N3CCN(C4CCN(C(=O)c5ccc(Cl)nc5N)CC4)[C@@H](CC)C3)c(C3CC3)n2)o1` registered a half-inhibitory concentration (IC50) in data set [1] of 24.5 nM. Also, the “inhibition (INH)” value in data set [2] amounted to 14%.
`CC[C@H]1CN(c2ncc(-c3ncc[nH]3)nc2C)[C@H](C)CN1C1CCN(C(=O)c2ccc(Cl)cc2)CC1`: in data set [1], the IC50 worked out at 1.6 nM. In addition, the “inhibition (INH)” value in data set [2] came to 36%. For the same compound, the AUC in the data set on Rattus norvegicus [4] is 0.8 uM.hr/ml; in the data set on Rattus norvegicus [3], 7.3 uM.hr/ml.

Usually IC50 stands for the concentration that gives 50% inhibition. Lower therefore signals greater potency.
